# Data from patent US20230092890A1, “1, 3, 4-Oxadiazole derivative compounds as histone deacetylase 6 inhibitor, and the pharmaceutical composition comprising the same” (Chong Kun Dang Pharmaceutical Corp., priority 2019, published 2023).
# pIC50: −log10 of the molar value. Read-outs that look alike come from different tables or passages of the source.
# Columns and labels:
# HDAC1 = biological target: T1, HDAC1 (Homo sapiens, UniProt Q13547); assay: HDAC enzyme activity inhibition (in vitro), HDAC1 Fluorimetric Drug Discovery Assay Kit; type: biochemical
# T1 construct: purchased Enzolifesciences BML-AK511
# T1 sequence (Q13547 whole entry): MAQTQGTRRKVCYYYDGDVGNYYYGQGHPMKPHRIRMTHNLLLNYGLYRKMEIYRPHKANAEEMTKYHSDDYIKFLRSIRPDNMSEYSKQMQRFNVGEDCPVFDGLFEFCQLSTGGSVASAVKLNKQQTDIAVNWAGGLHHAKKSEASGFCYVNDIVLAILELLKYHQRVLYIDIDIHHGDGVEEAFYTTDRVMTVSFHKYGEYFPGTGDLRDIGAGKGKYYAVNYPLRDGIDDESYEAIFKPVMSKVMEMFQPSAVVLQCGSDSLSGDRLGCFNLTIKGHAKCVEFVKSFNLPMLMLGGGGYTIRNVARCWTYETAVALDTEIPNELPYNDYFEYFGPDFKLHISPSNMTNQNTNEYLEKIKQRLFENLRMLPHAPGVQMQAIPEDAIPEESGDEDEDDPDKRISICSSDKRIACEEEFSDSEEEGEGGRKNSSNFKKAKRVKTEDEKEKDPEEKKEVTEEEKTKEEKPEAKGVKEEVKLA
# Procedure, shortened: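 HDAC1 was tested at 100, 1000 and 10000 nM and recombinant human HDAC6 at 0.1, 1, 10, 100 and 1000 nM. Enzyme reactions ran 60 min at 37° C, then developer was added for 30 min at 37° C, and fluorescence (Ex 390, Em 460) was read.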
# HDAC6 human recombinant = biological target: T2, HDAC6 human recombinant (Homo sapiens, UniProt Q9UBN7); assay: HDAC enzyme activity inhibition (in vitro), HDAC6 assay; type: biochemical
# T2 construct: purchased Calbiochem 382180
# T2 sequence (Q9UBN7 1-1215): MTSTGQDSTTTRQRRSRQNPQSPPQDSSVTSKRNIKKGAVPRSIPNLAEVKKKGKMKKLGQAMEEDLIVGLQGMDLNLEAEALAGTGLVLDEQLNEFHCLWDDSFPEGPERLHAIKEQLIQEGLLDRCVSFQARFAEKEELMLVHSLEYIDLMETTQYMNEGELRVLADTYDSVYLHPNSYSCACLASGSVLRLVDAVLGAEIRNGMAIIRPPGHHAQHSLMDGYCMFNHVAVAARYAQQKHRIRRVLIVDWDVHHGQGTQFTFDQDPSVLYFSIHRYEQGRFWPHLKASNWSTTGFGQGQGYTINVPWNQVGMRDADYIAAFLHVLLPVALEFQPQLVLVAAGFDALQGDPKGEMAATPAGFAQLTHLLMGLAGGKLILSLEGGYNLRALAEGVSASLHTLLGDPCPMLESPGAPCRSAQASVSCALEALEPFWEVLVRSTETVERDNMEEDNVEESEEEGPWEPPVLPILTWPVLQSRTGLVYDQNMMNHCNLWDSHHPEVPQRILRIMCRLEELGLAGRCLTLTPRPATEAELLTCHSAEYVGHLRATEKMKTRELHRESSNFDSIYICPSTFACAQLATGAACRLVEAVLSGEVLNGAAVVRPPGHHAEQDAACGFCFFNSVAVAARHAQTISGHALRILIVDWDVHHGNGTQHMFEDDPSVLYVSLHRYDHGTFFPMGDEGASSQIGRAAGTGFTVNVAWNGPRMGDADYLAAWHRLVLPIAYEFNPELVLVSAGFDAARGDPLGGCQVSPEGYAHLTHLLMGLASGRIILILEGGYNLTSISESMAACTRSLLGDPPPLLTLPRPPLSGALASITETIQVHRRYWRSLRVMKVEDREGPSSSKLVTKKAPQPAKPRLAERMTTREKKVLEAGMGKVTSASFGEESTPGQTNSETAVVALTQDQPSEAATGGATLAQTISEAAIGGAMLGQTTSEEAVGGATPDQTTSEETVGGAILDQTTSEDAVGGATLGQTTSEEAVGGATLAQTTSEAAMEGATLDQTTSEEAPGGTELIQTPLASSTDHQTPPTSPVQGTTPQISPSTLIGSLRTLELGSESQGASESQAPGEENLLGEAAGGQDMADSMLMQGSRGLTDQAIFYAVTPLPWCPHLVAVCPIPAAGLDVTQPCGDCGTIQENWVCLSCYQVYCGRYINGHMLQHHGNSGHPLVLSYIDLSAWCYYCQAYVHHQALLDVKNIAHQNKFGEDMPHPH
# Procedure, shortened: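 HDAC6 human recombinant enzyme with fluorimetric substrate; […]. Reaction 60 min at 37° C, then developer 30 min at 37° C; fluorescence read at Ex 390/Em 460.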
# [1] = samples at 100, 1000 and 10000 nM, 37° C. 60 minutes, fluorescence Ex 390, Em 460, read-out: HDAC1 IC50
# [2] = samples at 0.1, 1, 10, 100 and 1000 nM, 37° C. 60 minutes, fluorescence Ex 390, Em 460, read-out: HDAC6 IC50
Compound,pIC50 (HDAC1; [1]),pIC50 (HDAC6 human recombinant; [2]),pIC50 (HDAC1),pIC50 (HDAC6 human recombinant)
"CN1CCC(n2c(=O)n(Cc3ccc(-c4nnc(C(F)F)o4)cn3)c3ccc(-c4ccncc4)cc32)CC1 [Compound 135, 1-((5-(5-(difluoromethyl)-1,3,4-oxadiazole-2-yl)pyridine-2-yl)methyl)-3-(1-methylpiperidine-4-yl)-5-(pyridine-4-yl)-1,3-dihydro-2H-benzo[d]imidazole-2-one]",< 5.00,7.72,,
"O=c1oc2cc(-c3cccc4[nH]ccc34)c(F)cc2n1Cc1ccc(-c2nnc(C(F)F)o2)cn1 [Compound 279, 3-((5-(5-(difluoromethyl)-1,3,4-oxadiazole-2-yl)pyridine-2-yl)methyl)-5-fluoro-6-(1H-indole-4-yl)benzo[d]oxazole-2(3H)-one]",< 5.00,7.82,,
"CC(=O)N1CCC(N2CCC(n3c(=O)n(Cc4ccc(-c5nnc(C(F)F)o5)cn4)c4cc(F)ccc43)CC2)CC1 [Compound 59, 1-(1′-acetyl-[1,4′-bipiperidine]-4-yl)-3-((5-(5-(difluoromethyl)-1,3,4-oxadiazole-2-yl)pyridine-2-yl)methyl)-5-fluoro-1,3-dihydro-2H-benzo[d]imidazole-2-one]",,,< 5.00,7.42
"O=c1n(Cc2ccc(-c3nnc(C(F)F)o3)cn2)c2ccc(F)cc2n1C1CCN(C2CCCCC2)CC1 [Compound 47, 3-(1-cyclohexylpiperidine-4-yl)-1-((5-(5-(difluoromethyl)-1,3,4-oxadiazole-2-yl)pyridine-2-yl)methyl)-5-fluoro-1,3-dihydro-2H-benzo[d]imidazole-2-one]",< 5.00,6.90,,
"CC(C)(C)OC(=O)N1CCC(n2cc(-c3ccc4c(c3)sc(=O)n4Cc3ccc(-c4nnc(C(F)F)o4)cn3)cn2)CC1 [Compound 352, tert-butyl 4-(4-(3-((5-(5-(difluoromethyl)-1,3,4-oxadiazole-2-yl)pyridine-2-yl)methyl)-2-oxo-2,3-dihydrobenzo[d]thiazole-6-yl)-1H-pyrazole-1-yl)piperidine-1-carboxylate]",< 5.00,6.77,,
"O=c1sc2cc(-c3cnn(C4CCN(CC(F)(F)F)CC4)c3)ccc2n1Cc1ccc(-c2nnc(C(F)F)o2)cn1 [Compound 356, 3-((5-(5-(difluoromethyl)-1,3,4-oxadiazole-2-yl)pyridine-2-yl)methyl)-6-(1-(1-(2,2,2-trifluoroethyl)piperidine-4-yl)-1H-pyrazole-4-yl)benzo[d]thiazole-2(3H)-one]",< 5.00,7.08,,
"CN1CC(n2c(=O)n(Cc3ccc(-c4nnc(C(F)F)o4)cn3)c3cc(F)c(-c4cccc5[nH]ccc45)cc32)C1 [Compound 257, 1-((5-(5-(difluoromethyl)-1,3,4-oxadiazole-2-yl)pyridine-2-yl)methyl)-6-fluoro-5-(1H-indole-4-yl)-3-(1-methylazetidine-3-yl)-1,3-dihydro-2H-benzo[d]imidazole-2-one]",< 5.00,7.92,,
"CCN1CCC(n2c(=O)n(Cc3ccc(-c4nnc(C(F)F)o4)cn3)c3ccc(F)cc32)CC1 [Compound 40, 1-((5-(5-(difluoromethyl)-1,3,4-oxadiazole-2-yl)pyridine-2-yl)methyl)-3-(1-ethylpiperidine-4-yl)-5-fluoro-1,3-dihydro-2H-benzo[d]imidazole-2-one]",< 5.00,6.81,,
"CN1CCC(N2Cc3ccccc3N(Cc3ccc(-c4nnc(C(F)F)o4)cc3F)C2=O)CC1 [Compound 33, 1-(4-(5-(difluoromethyl)-1,3,4-oxadiazole-2-yl)-2-fluorobenzyl)-3-(1-methylpiperidine-4-yl)-3,4-dihydroquinazoline-2(1H)-one]",< 5.00,6.77,,

# The next lines start with results.
pIC50 (HDAC1; [1]),pIC50 (HDAC6 human recombinant; [2]),Compound,pIC50 (HDAC1),pIC50 (HDAC6 human recombinant)
< 5.00,8.30,"O=c1n(Cc2ccc(-c3nnc(C(F)F)o3)cn2)c2cc(F)c(-c3cn[nH]c3)cc2n1[C@@H]1CCCN(C2COC2)C1 [Compound 296, (R)-1-((5-(5-(difluoromethyl)-1,3,4-oxadiazole-2-yl)pyridine-2-yl)methyl)-6-fluoro-3-(1-(oxetan-3-yl)piperidine-3-yl)-5-(1H-pyrazole-4-yl)-1,3-dihydro-2H-benzo[d]imidazole-2-one]",,
< 5.00,8.22,"O=c1n(CCN2CCOCC2)c2cc(-c3cccc4[nH]ccc34)c(F)cc2n1Cc1ccc(-c2nnc(C(F)F)o2)cn1 [Compound 269, 1-((5-(5-(difluoromethyl)-1,3,4-oxadiazole-2-yl)pyridine-2-yl)methyl)-6-fluoro-5-(1H-indole-4-yl)-3-(2-morpholinoethyl)-1,3-dihydro-2H-benzo[d]imidazole-2-one]",,
< 5.00,7.49,"CC(C)N1CCC(n2c(=O)n(Cc3ccc(-c4nnc(C(F)F)o4)cn3)c3cc(F)ccc32)CC1 [Compound 51, 3-((5-(5-(difluoromethyl)-1,3,4-oxadiazole-2-yl)pyridine-2-yl)methyl)-5-fluoro-1-(1-isopropylpiperidine-4-yl)-1,3-dihydro-2H-benzo[d]imidazole-2-one]",,
< 5.00,6.16,"O=c1oc2ccccc2n1Cc1ccc(-c2nnc(C(F)F)o2)cc1F [Compound 245, 3-(4-(5-(difluoromethyl)-1,3,4-oxadiazole-2-yl)-2-fluorobenzyl)benzo[d]oxazole-2(3H)-one]",,
< 5.00,7.30,"CC(=O)N1CCC(n2c(=O)n(Cc3ccc(-c4nnc(C(F)F)o4)cc3)c3cc(F)c(F)cc32)CC1 [Compound 175, 1-(1-acetylpiperidine-4-yl)-3-(4-(5-(difluoromethyl)-1,3,4-oxadiazole-2-yl)benzyl)-5,6-difluoro-1,3-dihydro-2H-benzo[d]imidazole-2-one]",,
< 5.00,7.36,"Cc1ccc(-c2ccc3c(c2)n(C)c(=O)n3Cc2ccc(-c3nnc(C(F)F)o3)cn2)o1 [Compound 218, 1-((5-(5-(difluoromethyl)-1,3,4-oxadiazole-2-yl)pyridine-2-yl)methyl)-3-methyl-5-(5-methylfuran-2-yl)-1,3-dihydro-2H-benzo[d]imidazole-2-one]",,
< 5.00,6.34,"O=c1oc2cc(C3CCNCC3)ccc2n1Cc1ccc(-c2nnc(C(F)F)o2)cn1 [Compound 308, 3-((5-(5-(difluoromethyl)-1,3,4-oxadiazole-2-yl)pyridine-2-yl)methyl)-6-(piperidine-4-yl)benzo[d]oxazole-2(3H)-one]",,
< 5.00,7.37,"CN1CCC(n2c(=O)n(Cc3ccc(-c4nnc(C(F)F)o4)cn3)c3cc(F)c(-c4ccoc4)cc32)CC1 [Compound 150, 1-((5-(5-(difluoromethyl)-1,3,4-oxadiazole-2-yl)pyridine-2-yl)methyl)-6-fluoro-5-(furan-3-yl)-3-(1-methylpiperidine-4-yl)-1,3-dihydro-2H-benzo[d]imidazole-2-one]",,
< 5.00,7.72,"Cn1c(=O)n(Cc2ccc(-c3nnc(C(F)F)o3)cn2)c2cc(F)c(-c3cnc(N4CCN(C5COC5)CC4)nc3)cc21 [Compound 343, 1-((5-(5-(difluoromethyl)-1,3,4-oxadiazole-2-yl)pyridine-2-yl)methyl)-6-fluoro-3-methy 1-5-(2-(4-(oxetan-3-yl)piperazine-1-yl)pyrimidine-5-yl)-1,3-dihydro-2H-benzo[d]imidazole-2-one]",,
< 5.00,7.68,"Cn1c(=O)n(Cc2ccc(-c3nnc(C(F)F)o3)cc2F)c2cc(F)c(-c3cccnc3)cc21 [Compound 169, 1-(4-(5-(difluoromethyl)-1,3,4-oxadiazole-2-yl)-2-fluorobenzyl)-6-fluoro-3-methyl-5-(pyridine-3-yl)-1,3-dihydro-2H-benzo[d]imidazole-2-one]",,
